{"source": "ChEMBL document CHEMBL4622894", "about": "“An effective method to produce 7-epitaxol from taxol in HCO3” (Bioorg Med Chem Lett, 2020)", "key": {"Saccharomyces cerevisiae [1]": {"test_system": "Saccharomyces cerevisiae", "test": "Antifungal activity against Saccharomyces cerevisiae AD18 assessed as fungal growth inhibition", "type": "functional, organism-based"}, "Saccharomyces cerevisiae [2]": {"test_system": "Saccharomyces cerevisiae", "test": "Antifungal activity against Saccharomyces cerevisiae S288C assessed as fungal growth inhibition", "type": "functional, organism-based"}}, "note": "pIC50: −log10 of the molar value.", "data": [{"smiles": "CC(=O)O[C@H]1C(=O)[C@]2(C)[C@H](O)C[C@H]3OC[C@@]3(OC(C)=O)[C@H]2[C@H](OC(=O)c2ccccc2)[C@]2(O)C[C@H](OC(=O)[C@H](O)[C@@H](NC(=O)c3ccccc3)c3ccccc3)C(C)=C1C2(C)C", "values": [{"measurement": "pIC50", "setting": "Saccharomyces cerevisiae [1]", "value": 4.15}, {"measurement": "pIC50", "setting": "Saccharomyces cerevisiae [2]", "value": "< 4.00"}]}, {"smiles": "CC(=O)O[C@H]1C(=O)[C@@]2(C)[C@H]([C@H](OC(=O)c3ccccc3)[C@]3(O)C[C@H](OC(=O)[C@H](O)[C@@H](NC(=O)c4ccccc4)c4ccccc4)C(C)=C1C3(C)C)[C@]1(OC(C)=O)CO[C@@H]1C[C@@H]2O", "note": "[PACLITAXEL]", "values": [{"measurement": "pIC50", "setting": "Saccharomyces cerevisiae [1]", "value": "< 4.00"}, {"measurement": "pIC50", "setting": "Saccharomyces cerevisiae [2]", "value": "< 4.00"}]}]}
